Columns and labels:
male Zucker obese rats = test: Oral glucose tolerance test (OGTT) and glucose stimulated insulin secretion after oral BCTC; type: in vivo, rat; settings: 6 month old male Zucker obese rats; BCTC 15 mg/kg p.o. at -30 min; glucose 2 g/kg po at time 0; vs vehicle
Excerpt: Laboratory animals: Male (n=19) Zucker obese rats were purchased from Charles River Laboratories, U.S. The rats were transported to Denmark at the age of 6 weeks and were kept under ambient controlled conditions on a normal day light cycle (lights on at 6 am, lights off at 6 pm) at the Måløv Animal Unit at Novo Nordisk A/S, Denmark from then and until the age of 9 month of age. The rats were kept in groups of 3 rats per cage until the end of the experiment in standard cages (Eurostandard Type IV, Techniplast, Scanbur, Denmark) and were given free access to acidified (0.4% citric acid) tap water and standard chow (Altromin, Brogaarden Aps, Denmark). The cages were supplied with wooden wool (Brogaarden, Denmark) as nesting material and the bedding material was aspen chips (Brogaarden, Denmark), changed twice per week as was the bottles of acidified water.
At 6 month of age, an OGTT was performed shortly after administering a capsaicin receptor antagonist (BCTC) orally. […] Fasting blood glucose and plasma insulin was determined as described below. […] The rats were left in the cage until time 0 where blood glucose was assessed followed by the OGTT. […] Blood glucose and plasma insulin was determined at time 30, 60 and 120 min after glucose. […] Following the experiment, glucose was determined using the glucose oxidase method (EBIO, Eppendorf, Germany). […]

F4/80 = test: Relative gene expression of F4/80 in mesenteric adipose tissue (quantitative RT-PCR); type: in vivo, rat; settings: 9 month old Zucker obese rats; 1 hour after BCTC 15 mg/kg po; vehicle as calibrator, 36B4 internal standard
Experimental: (§1) At 9 months of age, the same rats were tested re. mesenteric inflammatory mediators. The rats were fasted for 18 hours where after they were given BCTC at 15 mg/kg (n=10) or vehicle (n=9) orally by gavage. One hour after treatment, the rats were anaesthetized in isoflurane and decapitated. The mesenteric adipose tissue was quickly removed and transferred to 10× volume pre-chilled RNAlater (Sigma-Aldrich, USA) and stored at −20° C. To prevent area to area effect on gene expressions patterns, 0, 5-1 g tissue was homogenized in TRIzol Reagent (1 ml/100 mg tissue) (TRIzol; Invitrogen Corp.). […] PCR amplification mixtures (25 μl) contained 12.5 μl of 2× Platinum Quantitative PCR SuperMix-UDG (Invitrogen Corp.), 0.625 μl of reverse primer (20 μM), 0.625 μl forward primers (20 μM), 0.625 μl Probe (10 μM) (ProbeLibrary Exiqon A/S, Denmark) and 5 μl diluted cDNA template. Real-time quantitative PCR was carried out using MX3000P PCR machine (Stratagene, USA) with the following cycling parameters: polymerase activation for 10 minutes at 95° C. and amplification for 40 cycles of 30 seconds at 95° C. and 60 seconds at 60° C. […]
(§2) Relative gene expression of iNOS and F4/80 were determined by quantitative RT-PCR comparative Ct method (Applied Biosystems. User Bulletin #2. ABI PRISM 7700 sequence detection system, 1997) using vehicle as calibrator. […]

iNOS = test: Relative gene expression of iNOS in mesenteric adipose tissue (quantitative RT-PCR); type: in vivo, rat; settings: 9 month old Zucker obese rats; 1 hour after BCTC 15 mg/kg po; vehicle as calibrator, 36B4 internal standard
Experimental: as §1, §2

capsaicin receptor = molecular target: T1, capsaicin receptor (Rattus norvegicus, UniProt O35433); settings: literature refs 22, 23; cited from earlier work
T1 construct: host or cells: whole animal (in vivo pain models)
T1 sequence (O35433 whole entry): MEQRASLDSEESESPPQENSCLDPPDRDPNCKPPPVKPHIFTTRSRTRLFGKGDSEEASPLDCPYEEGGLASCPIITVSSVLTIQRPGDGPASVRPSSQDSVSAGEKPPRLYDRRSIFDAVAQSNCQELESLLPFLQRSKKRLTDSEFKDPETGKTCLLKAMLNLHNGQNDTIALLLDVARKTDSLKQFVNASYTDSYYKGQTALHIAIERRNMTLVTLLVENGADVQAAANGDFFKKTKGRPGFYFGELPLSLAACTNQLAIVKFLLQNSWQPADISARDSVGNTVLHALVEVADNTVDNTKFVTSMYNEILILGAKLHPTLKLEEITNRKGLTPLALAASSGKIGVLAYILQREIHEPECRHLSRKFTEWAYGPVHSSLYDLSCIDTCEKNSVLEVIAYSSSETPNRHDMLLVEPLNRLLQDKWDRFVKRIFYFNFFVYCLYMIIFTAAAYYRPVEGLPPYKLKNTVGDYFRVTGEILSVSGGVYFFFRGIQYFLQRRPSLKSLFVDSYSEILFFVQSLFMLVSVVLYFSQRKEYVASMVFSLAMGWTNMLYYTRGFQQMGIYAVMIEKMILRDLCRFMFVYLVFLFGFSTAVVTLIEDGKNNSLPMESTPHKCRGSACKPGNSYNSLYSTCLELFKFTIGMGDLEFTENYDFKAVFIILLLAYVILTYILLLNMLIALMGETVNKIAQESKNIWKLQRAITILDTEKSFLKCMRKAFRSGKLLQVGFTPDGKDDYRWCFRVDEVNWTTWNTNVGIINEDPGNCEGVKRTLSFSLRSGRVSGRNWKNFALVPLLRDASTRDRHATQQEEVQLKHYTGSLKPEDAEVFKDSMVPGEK

CC(C)(C)c1ccc(NC(=O)N2CCN(c3ncccc3Cl)CC2)cc1 [BCTC, N-(4-tertiarybutylphenyl)-4-(3-chloropyridin-2-yl)tetrahydropyrazine-1(2H)-carbox-amide]
blood glucose after oral glucose tolerance test (male Zucker obese rats): diminished rise in blood glucose | plasma insulin after oral glucose load (glucose stimulated insulin response) (male Zucker obese rats): considerable higher levels of insulin in plasma | gene expression of F4/80 in mesenteric adipose tissue (F4/80): significantly lower level | gene expression of iNOS in mesenteric adipose tissue (iNOS): significantly lower level | inhibiting capsaicin-mediated hyperalgesia, inflammatory hyperalgesia or allodynia, and hyperalgesia after nerve injury (capsaicin receptor): shown effective
